Where a name gives a salt, the structure may show the parent alone.
Columns and labels:
TNF-α production = experiment: Mouse LPS-induced TNF-α production model; type: in vivo, Balb/c female mice; conditions: oral administration of 30 mg/kg, 60 minutes before LPS, blood 90 minutes after LPS; for inhibition in vivo at 30 mg/kg: Mus musculus, po, 1.5 h, read-out: inhibition of plasma TNF-α
Procedure: (2) Mouse LPS-Induced TNF-α Production Model:
6 weeks old Balb/c female mice were placed into two groups, a control group and a test compound administration group. A solution containing 10 μg/mouse of LPS in 0.9% physiological salt was administered by intraperitoneal injection into the control mice. 60 minutes before the LPS administration, a compound of the invention was orally administered to the mice of the test compound administration group. Under anesthesia with diethyl ether, blood was collected from the posterior venous cavity of the mice of both the test compound administration group and the control group at 90 minutes after the LPS administration, and treated with heparin, and the plasma was separated from it through centrifugation at 10000 rpm at 4° C. for 10 minutes, and then diluted two-fold with PBS (pH 7.4).
The TNF-α concentration in the sample was determined with an ELISA kit (by Pharmingen, San Diego, Calif.). The inhibition by the mice of the test compound administration group relative to the mean inhibition by those of the control group was calculated as a mean value thereof.
The inhibition in oral administration of 30 mg/kg of compound (I) is shown below.

rat IKK2 = molecular target: T1, rat IKK2 (Rattus norvegicus, UniProt Q9QY78); experiment: Evaluation of rat IKK2 enzyme inhibition; type: biochemical; conditions: 0.5 μM ATP, probit analysis; read-out: IC50, rat IKK2 enzyme activity-inhibitory effect
T1 construct: ORF of rat IKK2 (GenBank AF115282) was cloned from a rat pancreas cDNA library; FLAG; made in house; host or cells: Sf9 insect cells
T1 sequence (Q9QY78 1-757): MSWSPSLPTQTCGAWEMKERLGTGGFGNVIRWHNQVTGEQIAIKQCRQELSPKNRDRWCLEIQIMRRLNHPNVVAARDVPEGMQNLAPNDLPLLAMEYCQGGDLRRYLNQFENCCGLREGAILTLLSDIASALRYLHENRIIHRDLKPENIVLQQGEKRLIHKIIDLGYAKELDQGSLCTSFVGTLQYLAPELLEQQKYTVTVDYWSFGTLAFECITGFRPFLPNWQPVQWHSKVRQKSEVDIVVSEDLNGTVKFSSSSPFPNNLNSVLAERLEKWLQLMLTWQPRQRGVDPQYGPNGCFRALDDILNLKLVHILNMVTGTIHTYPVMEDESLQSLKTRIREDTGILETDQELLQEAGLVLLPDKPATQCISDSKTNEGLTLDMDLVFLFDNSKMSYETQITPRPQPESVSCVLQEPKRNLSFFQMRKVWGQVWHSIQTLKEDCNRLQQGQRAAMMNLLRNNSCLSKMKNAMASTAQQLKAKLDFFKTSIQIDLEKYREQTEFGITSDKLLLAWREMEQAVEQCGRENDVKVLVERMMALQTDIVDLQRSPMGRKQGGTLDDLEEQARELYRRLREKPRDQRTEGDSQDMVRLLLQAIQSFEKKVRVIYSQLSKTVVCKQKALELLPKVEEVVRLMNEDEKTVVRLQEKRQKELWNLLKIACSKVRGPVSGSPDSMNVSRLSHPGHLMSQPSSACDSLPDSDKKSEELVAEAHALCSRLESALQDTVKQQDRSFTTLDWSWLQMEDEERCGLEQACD
Procedure: (1) Evaluation of Rat IKK2 Enzyme Inhibition:
ORF of rat IKK2 (GenBank AF115282) was cloned from a rat pancreas cDNA library, and with a FLAG-tag attached thereto, it was expressed in an Sf9 cell line. The cells were dissolved in a cytolytic solution (50 mM Tris-HCl pH 7.5, 0.15M NaCl, 1% NP-40, 10% glycerol, 1 mM EDTA, 1 mM EGTA pH 7.5, 1 mM Na3VO4, 5 mM p-nitrophenylphosphate, 10 mM O-glycerophosphate, 1 mM DTT, 1 mM PMSF, 10 μg/ml leupeptin, 10 μg/ml aprotinin (by Sigma)) to prepare a large amount of an cell extract, which was then purified on an anti-FLAG M2 antibody (by Sigma). This experimental operation was carried out in accordance with gene manipulation experiment manuals such as known methods (Sambrook, J. et al, Molecular Cloning-A Laboratory Manual, Cold Spring Harbor laboratory, NY, 1989) or the instructions attached to the reagents. The purified rat IKK2 was stored in an enzyme preservative (20 mM Tris-HCl pH 7.5, 10% glycerol, 12.5 mM β-glycerophosphate, 0.5 mM EDTA, 0.5 mM EGTA, 0.05% Brij35, 1 mM DTT, 1 mM PMSF (by Sigma)) at −80° C.
The purified rat IKK2, 1× enzymatic reaction buffer (20 mM Tris-HCl pH 7.5, 12.5 mM O-glycerophosphate, 20 mM MgCl2, 0.1 mM DTT), 0.01% BSA (by Sigma), 0.5 μM ATP, 0.2 μM biotinated substrate peptide (18th to 49th amino acid residues of rat I-kappa B alpha (GenBank Q63746)) and a test compound dissolved in DMSO were added to a 384-well plate (catalogue No. 3677, by Corning) to be 10 μl in total therein, and left at room temperature for 90 minutes. Next, […] of a reaction stopper (100 mM Hepse pH 8, 0.01% BSA, 0.8 M KF, 50 mM EDTA pH 8, 1% Triton X-100, europium cryptate-labeled anti-phosphorylation I-kappa B alpha-antibody (by Santa Cru), streptoavidin-labeled XL665 (by Nihon Schering)) was added thereto, kept warmed for 30 minutes, and then assayed with DISCOVERY (by Perkin-Elmer). The rat IKK2 enzyme activity-inhibitory effect of the tested compound was obtained according to the following formula. Every dose was tested independently three times. Inhibition (%) by Test Compound=((mean value with rat IKK2 but not with test compound)−(mean value with both test compound and rat IKK2))/((mean value with rat IKK2 but not with test compound)−(mean value not with rat IKK2))×100.

carrageenan paw edema = experiment: Rat carrageenan paw edema model; type: in vivo, Sprague-Dawley male rats; conditions: for edema inhibitory activity: 30 mg/kg oral administration, 3 hours after carrageenan
Procedure: (3) Rat Carrageenan Paw Edema Model:
After their body weight was measured, Sprague-Dawley male rats (6-10 weeks age, male, by Nippon SLC) were divided into groups of 5 rats each in such a manner that the mean body weight of each group could be on the same level. Next, a test compound was orally administered to the rats (but 10 mL/kg of solvent alone was administered to those of the control group). 30 minutes after the test compound administration thereto, 100 μL of a 1% carrageenan (by Sigma Aldrich Japan) solution was subcutaneously injected to the sub-plantar of the right foot of each rat to induce inflammation. 3 hours after the inflammation induction, the rats were killed by deep anesthetization with ether, and their tissue below the right and left ankles was cut and collected and its weight was measured.
The test result was obtained as follows: In every rat, the weight of the left foot with no carrageenan injection thereto was subtracted from the weight of the right foot with carrageenan injection thereto, 3 hours after the carrageenan injection, thereby calculating the weight difference (g) therebetween. The edema inhibition in the test compound-administered rats was calculated relative to the mean value of the rats of the control group. For multi-group comparison between the control group and the test compound administration group, employed was a Dunnett multiple comparison test, in which the P value less than 0.05 was considered as statistical significance. All the above statistical analyses were carried out, using SAS.

| IC50 (rat IKK2) | SMILES | also measured |
| --- | --- | --- |
| – | CCc1ccc(O)c(-c2cc(C3CCCNC3)nc(N)n2)c1 (single isomer, unassigned; (+)) [Example 79, (+)-2-(2-amino-6-piperidin-3-ylpyrimidin-4-yl)-4-ethylphenol dihydrochloride] | inhibition in vivo at 30 mg/kg (TNF-α production): 64% |
| ≤ 500 nM | CCc1ccc(O)c(-c2cc(C3CCCNC3)nc(N)n2)c1 (single isomer, unassigned; (-)) [Example 78, (−)-2-(2-amino-6-piperidin-3-ylpyrimidin-4-yl)-4-ethylphenol dihydrochloride] | – |
| ≤ 500 nM | Nc1nc(-c2ccccc2O)cc(C2CCCNC2)n1 (centres unmarked) [Example 1, 2-(2-amino-6-piperidin-3-ylpyrimidin-4-yl)phenol dihydrochloride] | – |
| ≤ 500 nM | CCOc1cccc(O)c1-c1cc(C2CCCNC2)nc(N)n1 (centres unmarked) [Example 5, 2-(2-amino-6-piperidin-3-ylpyrimidin-4-yl)-3-ethoxyphenol dihydrochloride] | – |
| ≤ 500 nM | Nc1nc(-c2c(O)cccc2O)cc(C2CCCNC2)n1 (centres unmarked) [Example 10, 2-(2-amino-6-piperidin-3-ylpyrimidin-4-yl)benzene-1,3-diol dihydrochloride] | – |
| ≤ 500 nM | Nc1nc(-c2cc(F)ccc2O)cc(C2CCCNC2)n1 (centres unmarked) [Example 12] | – |
| ≤ 500 nM | Nc1nc(-c2ccc(F)cc2O)cc(C2CCCNC2)n1 (centres unmarked) [Example 13] | – |
| ≤ 500 nM | Nc1nc(-c2cc(Cl)ccc2O)cc(C2CCCNC2)n1 (centres unmarked) [Example 14] | – |
| ≤ 500 nM | Cc1cc(O)c(-c2cc(C3CCCNC3)nc(N)n2)cc1Cl (centres unmarked) [Example 19] | – |
| ≤ 500 nM | Cc1ccc(-c2cc(C3CCCNC3)nc(N)n2)c(O)c1 (centres unmarked) [Example 21] | edema inhibitory activity (carrageenan paw edema): 30% |
| ≤ 500 nM | Cc1ccc(O)c(-c2cc(C3CCCNC3)nc(N)n2)c1 (centres unmarked) [Example 22] | inhibition in vivo at 30 mg/kg (TNF-α production): 73% |
| ≤ 500 nM | CCc1ccc(O)c(-c2cc(C3CCCNC3)nc(N)n2)c1 (centres unmarked) [Example 23] | edema inhibitory activity (carrageenan paw edema): 50% |
| ≤ 500 nM | COc1ccc(O)c(-c2cc(C3CCCNC3)nc(N)n2)c1 (centres unmarked) [Example 26] | – |
| ≤ 500 nM | CSc1ccc(O)c(-c2cc(C3CCCNC3)nc(N)n2)c1 (centres unmarked) [Example 28] | – |
| ≤ 500 nM | Cc1cc(O)c(-c2cc(C3CCCNC3)nc(N)n2)c(OCC2CC2)c1 (centres unmarked) [Example 40] | – |
| ≤ 500 nM | COc1cccc(O)c1-c1cc(C2CCCNC2)nc(N)n1 (centres unmarked) [Example 44] | – |
| ≤ 500 nM | COCCOc1cccc(O)c1-c1cc(C2CCCNC2)nc(N)n1 (centres unmarked) [Example 46] | – |
| ≤ 500 nM | Nc1nc(-c2c(O)cccc2OCc2ccccc2)cc(C2CCCNC2)n1 (centres unmarked) [Example 47] | – |
| ≤ 500 nM | Nc1nc(-c2c(O)cccc2OCCC2CCNCC2)cc(C2CCCNC2)n1 (centres unmarked) [Example 48] | – |

| IC50 (rat IKK2) | SMILES | also measured |
| --- | --- | --- |
| ≤ 500 nM | CC1CC1COc1cccc(O)c1-c1cc(C2CCCNC2)nc(N)n1 (centres unmarked) [Example 65, 2-(2-amino-6-piperidin-3-ylpyrimidin-4-yl)-3-[(2-methylcyclopropyl)methoxy]phenol dihydrochloride] | inhibition in vivo at 30 mg/kg (TNF-α production): 75% |
| ≤ 500 nM | Nc1nc(-c2c(O)cccc2OCC(F)(F)C(F)F)cc(C2CCCNC2)n1 (centres unmarked) [Example 89] | inhibition in vivo at 30 mg/kg (TNF-α production): 87% |
| ≤ 500 nM | CC1(COc2cccc(O)c2-c2cc(C3CCCNC3)nc(N)n2)CC1 (centres unmarked) [Example 99] | – |
| ≤ 500 nM | CC(C)OCCOc1cccc(O)c1-c1cc(C2CCCNC2)nc(N)n1 (centres unmarked) [Example 100] | – |
| ≤ 500 nM | CC(C)COCCOc1cccc(O)c1-c1cc(C2CCCNC2)nc(N)n1 (centres unmarked) [Example 101] | – |
| ≤ 500 nM | CC(COc1cccc(O)c1-c1cc(C2CCCNC2)nc(N)n1)Oc1ccccc1 (centres unmarked) [Example 103] | inhibition in vivo at 30 mg/kg (TNF-α production): 70% |
| ≤ 500 nM | Nc1nc(-c2c(O)cccc2OCCC2CC2)cc(C2CCCNC2)n1 (centres unmarked) [Example 104] | inhibition in vivo at 30 mg/kg (TNF-α production): 86% |
| ≤ 500 nM | Nc1nc(-c2c(O)cccc2OCCCC(F)(F)F)cc(C2CCCNC2)n1 (centres unmarked) [Example 106] | inhibition in vivo at 30 mg/kg (TNF-α production): 82% |
| ≤ 500 nM | Nc1nc(-c2c(O)cccc2OCc2ccc(Br)cc2)cc(C2CCCNC2)n1 (centres unmarked) [Example 108] | – |
| ≤ 500 nM | CC1CCC(Oc2cccc(O)c2-c2cc(C3CCCNC3)nc(N)n2)C1 (centres unmarked) [Example 126] | – |
| ≤ 500 nM | Cc1ccc(O)c(-c2cc(C3CNCC(C)C3)nc(N)n2)c1 (centres unmarked) [Example 136] | – |
| ≤ 500 nM | Cc1ccc(O)c(-c2cc(C3CCC(C)NC3)nc(N)n2)c1 (centres unmarked) [Example 137] | – |
| 2.9 nM | CC1CCC(c2cc(-c3c(O)cccc3OCC3CC3)nc(N)n2)CN1 (centres unmarked) [Example 140] | inhibition in vivo at 30 mg/kg (TNF-α production): 86% |
| – | Nc1nc(-c2c(O)cccc2OCC2CC2)cc(C2CCCNC2)n1 (centres unmarked) [Example 141] | inhibition in vivo at 30 mg/kg (TNF-α production): 86% |
| – | Nc1nc(-c2c(O)cccc2OCC2CC2)cc(C2CCCNC2)n1 (centres unmarked) [Example 142] | inhibition of plasma TNF-α (TNF-α production; 30 mg/kg): 90% |
| ≤ 500 nM | Nc1nc(-c2c(O)cccc2OCC2CC2)cc(C2CCNCC2)n1 [Example 145] | – |
| ≤ 500 nM | CC(C)COc1cccc(O)c1-c1cc(C2CCNCC2)nc(N)n1 [Example 146] | – |
| ≤ 500 nM | Nc1nc(-c2c(O)cccc2OCC(=O)c2ccccc2)cc(C2CCNCC2)n1 [Example 147] | – |
| – | CN(Cc1cnc2nc(N)nc(N)c2n1)c1ccc(C(=O)N[C@@H](CCC(=O)O)C(=O)O)cc1 [Methotrexate, reference compound] | effect on carrageenan paw edema (carrageenan paw edema; dose not given): did not exhibit an effect |

From patent US20070265289A1, “2-Aminopyrimidine Derivative” (priority 2004, published 2007)
